Assay results published in ChEMBL document CHEMBL4831532.
Active and inactive are the calls of the source. No cut-off for these calls is given here.

Legend:
SARS-CoV-2 [1] = assay: microbe, parasite or virus in culture; details: Severe acute respiratory syndrome coronavirus 2, JPN/TY/WK-251, Vero C1008, 72 h
[2] = Inhibition of SARS-CoV-2 3CL protease using HiyteFluor-488ESATL-QSGLRKAK-(QXL)-NH2 fluorogenic peptide as substrate preincubated for 15 mins followed by substrate addition and measured after 30 mins by FRET assay; set-up: species or system Severe acute respiratory syndrome coronavirus 2
SARS-CoV-2 [3] = type: functional, organism-based; details: Severe acute respiratory syndrome coronavirus 2; JPN/TY/WK-251; Vero E6; dose 10.0 µM, time 3.0 day
SARS-CoV-2 [4] = type: functional, Severe acute respiratory syndrome coronavirus 2, JPN/TY/WK-251, Vero E6
SARS-CoV-2 [5] = type: functional, Severe acute respiratory syndrome coronavirus 2, JPN/TY/WK-251, Vero E6; details: dose 1-100 µM; time 72 hrs; at 1 to 100 µM
Vero C1008 = assay: Cytotoxicity against African green monkey Vero E6 cells incubated for 3 days; type: cell-based; details: chlorocebus sabaeus, vero c1008, 72 h; time 3 day
[6] = Binding affinity to SARS-CoV-2 3CL protease; set-up: species or system Severe acute respiratory syndrome coronavirus 2

Compound | EC50 (SARS-CoV-2 [1]) | also measured
O=C(Oc1cncc(Cl)c1)c1cccc2ncoc12 | > 100 µM | –
C=CCc1cn(CC=C)c2cccc(C(=O)Oc3cncc(Cl)c3)c12 | 11.5 µM | –
O=C(Oc1cncc(Cl)c1)c1cccc2c1CCN2 | 15 µM | IC50 [2]: 0.32 µM; Activity (SARS-CoV-2 [3]): Active; Activity (SARS-CoV-2 [4]; dose 100 µM, time 3 day): 100%
Cc1nc2c(C(=O)Oc3cncc(Cl)c3)cccc2[nH]1 | 57.1 µM | –
Cc1ncc(OC(=O)c2cccc3[nH]cnc23)cc1Cl | 57 µM | –
O=C(Oc1cncc(Cl)c1)c1cc(F)cc2[nH]ccc12 | 14 µM | –
O=C(Oc1cncc(Cl)c1)c1cccc2[nH]cnc12 | > 100 µM | –
O=C(Nc1cncc(Cl)c1)c1cccc2[nH]ccc12 | > 100 µM | –
Cc1ncc(OC(=O)c2cccc3[nH]ccc23)cc1Cl | 30 µM | –
Cc1c(Cl)cncc1OC(=O)c1cccc2[nH]ccc12 | 19.3 µM | –
COc1cccc2[nH]c(C(=O)Oc3cncc(Cl)c3)cc12 | 8.1 µM | –
Cc1ccc2[nH]ccc2c1C(=O)Oc1cncc(Cl)c1 | > 100 µM | –
C=CCn1ccc2c(C(=O)Oc3cncc(Cl)c3)cccc21 | 15 µM | –
O=C(Oc1cncc(Cl)c1)c1cccc2[nH]ccc12 | – | Activity (SARS-CoV-2 [5]): 100%; CC50 (Vero C1008): > 100 µM; Activity (SARS-CoV-2 [3]): Active; Activity (SARS-CoV-2 [4]; dose 100 µM, time 3 day): 100%
Cc1ncc(Cl)cc1OC(=O)c1cccc2[nH]ccc12 | > 100 µM | IC50 [2]: > 100 µM
O=C(Oc1cncc(Cl)c1)c1cccc2c1OCCN2 | > 100 µM | –
Cc1cc(C(=O)Oc2cncc(Cl)c2)c2cc[nH]c2c1 | 3.1 µM | –
O=C(Nc1cccc(Cl)c1)c1cccc2[nH]ccc12 | > 100 µM | IC50 [2]: 100 µM
Cc1c[nH]c2cccc(C(=O)Oc3cncc(Cl)c3)c12 | 56.7 µM | –
COc1cccc2[nH]c(C(=O)N[C@@H](CC(C)C)C(=O)N[C@@H](C[C@@H]3CCNC3=O)C(=O)c3nc4ccccc4s3)cc12 | – | Ki [6]: 0.0176 µM
CCC(CC)COC(=O)[C@H](C)N[P@](=O)(OC[C@H]1O[C@@](C#N)(c2ccc3c(N)ncnn23)[C@H](O)[C@@H]1O)Oc1ccccc1 | – | Activity (SARS-CoV-2 [5]): 100%; Activity (SARS-CoV-2 [3]): Active; Activity (SARS-CoV-2 [4]; Severe acute respiratory syndrome coronavirus 2, JPN/TY/WK-251, Vero E6, dose 100.0 µM, time 3.0 day): Active
O=C(Oc1cncc(Cl)c1)c1ccc2[nH]ccc2c1 | 43.7 µM | –
O=C(Oc1cncc(Cl)c1)c1ccc2c(ccn2S(=O)(=O)c2cccc([N+](=O)[O-])c2)c1 | 69.8 µM | –
